Data published in US20230203060A1 (GENFLEET THERAPEUTICS (SHANGHAI) INC., priority 2020, published 2023).
Counter-ions that a name gives are not always drawn.

tested on: KRAS G12C mutant NCI-H358 cells; experiment: Cell proliferation inhibition experiment, 3D spheroid, CellTiter-Glo, NCI-H358; type: cell-based, human; conditions: Homo sapiens, NCI-H358, 120 h, NCI-H358 (KRAS G12C mutant) 3D spheroid, 5 days with compound, CellTiter-Glo; read-out: H358 IC50
Text: Raw materials and instruments: NCI-H358 purchased from ATCC; article number: CRL-5807; batch number: 70010825; A549 purchased from ATCC; article number: CCL-185; batch number: 70007820; RPMI1640 purchased from Gibco; article number: 11875-093; batch number: 2152748; F-12K purchased from Gibco; article number: 21127-022; batch number: 2185853; FBS purchased from Gibco; article number: 10099-141; batch number: 2109290CP; PS purchased from Gibco; article number: 15140-122; batch number: 2145451; Trypsin-EDTApurchased from Gibco; article number: 25200-072; batch number: 2085552; CellTiter Glo working solution purchased from Promega; article number: G9683; batch number: 398478; DMSO purchased from VWR AMRESCO; article number: 0231-500ML; batch number: 18C0656168; 384-well spheroid plate purchased from Corning; article number: 3830; batch number: 27519032; white opaque 384-well plate purchased from Corning; article number: 3570; batch number: 26819023; microplate reader purchased from PerkinElmer; model: Envision MLD2105-0020; equipment number 1050369.
NCI-H358 is a KRAS G12C mutant human non-small cell lung cancer cell line, cultured in 10% FBS RPMI-1640+1% PS culture medium; and A549 is a KRAS G12S mutant human lung adenocarcinoma cell line, cultured in 10% FBS F-12K+1% PS culture medium. Cells at logarithmic growth stage were taken, digested with trypsin-EDTA, then collected and counted. H358 was adjusted to 1.8 E4 cells/mL with 2% FBS RPMI-1640 culture medium, and A549 was adjusted to 8.9 E3 cells/mL with 2% FBS F-12K culture medium; 800 (45 μL) H358 or 400 (45 μL) A549 were inoculated respectively in a 384-well spheroid plate and cultured overnight to establish a 3D cell model. A 3.16-fold gradient concentration stock solution of 1000× compound was prepared with DMSO, and diluted 100-fold to 10× compound stock solution with 2% FBS culture medium. On the second day after cell inoculation, 5 μL of 10× compound stock solution was added to each cell culture well, with a final concentration of 1× and a DMSO content of 0.1%. DMSO was used as experimental control (control), and 2% FBS culture medium was used as blank control (blank). After 5 days of compound cell culture, 25 μL of CellTiter-Glo working solution was added to each well, mixed well at 400 rpm and incubated for 30 minutes. After standing at room temperature for 30 minutes, 40 μL of the mixed solution was transferred to a white opaque 384-well plate, and the luminescence chemiluminescence value was read with a microplate reader. The cell proliferation inhibition rate IR (%)=(RLU control -RLU compound)/(RLU control -RLU blank) x100% was calculated. The gradient dilution concentration of the compound and the corresponding cell proliferation inhibition rate were fitted by Prism 6 four-parameter method, and the IC50 value was calculated. The inhibitory activity of the compounds prepared in the above embodiments of the present disclosure on KRAS G12C mutant NCI-H358 cells was 0.0001 μM to 0.5 μM; the inhibitory activity of some compounds on KRAS G12C mutant NCI-H358 cells was 0.001 μM to 0.1 μM or 0.001 μM to 0.05 μM.

IC50 [nM] | Compound
55.8 | C=CC(=O)N1CCN2C(=O)c3c(N4CCN(C5COC5)C[C@H]4C)nc(-c4c(O)cccc4F)c(Cl)c3OC[C@H]2C1 (single isomer, unassigned) [Z239-2]
27 | C=CC(=O)N1CCN2C(=O)c3c(N4C[C@H](O)CC4(C)C)nc(-c4c(O)cccc4F)c(F)c3OC[C@H]2C1 (single isomer, unassigned) [Z256-2]
37.3 | C=CC(=O)N1CCN2C(=O)c3c(N4Cc5cnn(C)c5[C@@H]4C)nc(-c4c(O)cccc4F)c(Cl)c3OC[C@H]2C1 (single isomer, unassigned) [Z292S, trifluoroacetate]
43 | C=CC(=O)N1CCN2C(=O)C3=C(OC[C@H]2C1)C(C)=C(c1c(O)cccc1F)CN3N1C[C@@H](O)CC1(C)C (single isomer, unassigned) [Z336-1]
45.2 | C=CC(=O)N1CCN2C(=O)c3c(N4Cc5nn(C)cc5[C@H]4C)nc(-c4c(O)cccc4F)c(Cl)c3OC[C@H]2C1 (single isomer, unassigned) [Z345-1]
19 | C=CC(=O)N1CCN2C(=O)c3c(N4CCOCC45CCC5)nc(-c4c(O)cccc4F)c(Cl)c3OC[C@H]2C1 [Z90, (6aR)-8-acryloyl-4-chloro-3-(2-fluoro-6-hydroxyphenyl)-1-(8-oxa-5-azaspiro[3.5]nonan-5-yl)-6,6a,7,8,9,10-hexahydro-12H-pyrazino[2,1-c]pyrido[3,4-f][1,4]oxazepin-12-one]
26.3 | C=CC(=O)N1CCN2C(=O)c3c(N4CCCC(C)C4C)nc(-c4c(O)cccc4F)c(Cl)c3OC[C@H]2C1 (stereo partly drawn) [Z99, (6aR)-8-acryloyl-4-chloro-1-(2,3-dimethylpiperidin-1-yl)-3-(2-fluoro-6-hydroxyphenyl)-6,6a,7,8,9,10-hexahydro-12H-pyrazino[2,1-c]pyrido[3,4-f][1,4]oxazepin-12-one]
44.9 | C=CC(=O)N1CCN2C(=O)c3c(OCC4N(C)CCC4(C)C)nc(-c4c(O)cccc4F)c(Cl)c3OC[C@H]2C1 (stereo partly drawn) [Z110, (6aR)-8-acryloyl-4-chloro-1-((1,3,3-trimethyltetrahydropyrrol-2-yl)methoxy)-3-(2-fluoro-6-hydroxyphenyl)-6,6a,7,8,9,10-hexahydro-12H-pyrazino[2,1-c]pyrido[3,4-f][1,4]oxazepin-12-one]
285 | C=CC(=O)N1CCN2C(=O)c3c(N4CCOC(C)(C)C4)nc(-c4c(C)ccc5[nH]ncc45)c(F)c3OC[C@H]2C1 [Z238, (6aR)-8-acryloyl-1-(2,2-dimethylmorpholino)-4-fluoro-3-(5-methyl-1H-indazol-4-yl)-6,6a,7,8,9,10-hexahydro-12H-pyrazino[2,1-c]pyrido[3,4-f][1,4]oxazepin-12-one]
35 | C=CC(=O)N1CCN2C(=O)c3c(N4C[C@@H](C)N(C)[C@@H](C)C4)nc(-c4c(O)cccc4F)c(Cl)c3OC[C@H]2C1 [Z246, (6aR)-8-acryloyl-4-chloro-3-(2-fluoro-6-hydroxyphenyl)-1-((3S,5R)-3,4,5-trimethylpiperazin-1-yl)-6,6a,7,8,9,10-hexahydro-12H-pyrazino[2,1-c]pyrido[3,4-f][1,4]oxazepin-12-one]
234 | C=CC(=O)N1CCN2C(=O)c3c(N4C[C@H](C)O[C@@H](C)C4)nc(-c4c(O)cccc4F)c(Cl)c3OC[C@H]2C1 [Z248-1, (6aR)-8-acryloyl-1-((2S,6S)-2,6-dimethylmorpholino)-4-chloro-3-(2-fluoro-6-hydroxyphenyl)-6,6a,7,8,9,10-hexahydro-12H-pyrazino[2,1-c]pyrido[3,4-f][1,4]oxazepin-12-one]
128 | C=CC(=O)N1CCN2C(=O)c3c(N4C(C)COCC4C)nc(-c4c(O)cccc4F)c(Cl)c3OC[C@H]2C1 (stereo partly drawn) [Z252, (6aR)-8-acryloyl-1-(3,5-dimethylmorpholino)-4-chloro-3-(2-fluoro-6-hydroxyphenyl)-6,6a,7,8,9,10-hexahydro-12H-pyrazino[2,1-c]pyrido[3,4-f][1,4]oxazepin-12-one]
144 | C=CC(=O)N1CCN2C(=O)c3c(N4[C@H](C)COC[C@@H]4C)nc(-c4c(O)cccc4F)c(Cl)c3OC[C@H]2C1 [Z252-1, (6aR)-8-acryloyl-1-(3R,5S-dimethylmorpholino)-4-chloro-3-(2-fluoro-6-hydroxyphenyl)-6,6a,7,8,9, 10-hexahydro-12H-pyrazino[2,1-c]pyrido[3,4-f][1,4]oxazepin-12-one]
32 | C=CC(=O)N1CCN2C(=O)c3c(N4CCOC(C)(C)C4)nc(-c4c(O)cccc4F)c(F)c3OC[C@H]2C1 [Z255, (6aR)-8-acryloyl-1-(2,2-dimethylmorpholino)-4-fluoro-3-(2-fluoro-6-hydroxyphenyl)-6,6a,7,8,9,10-hexahydro-12H-pyrazino[2,1-c]pyrido[3,4-f][1,4]oxazepin-12-one]
69 | C=CC(=O)N1CCN2C(=O)c3c(cc(-c4c(O)cccc4F)nc3N3CCOC(C)(C)C3)OC[C@H]2C1 [Z263, (6aR)-8-acryloyl-1-(2,2-dimethylmorpholino)-3-(2-fluoro-6-hydroxyphenyl)-6,6a,7,8,9,10-hexahydro-12H-pyrazino[2,1-c]pyrido[3,4-f][1,4]oxazepin-12-one]
31.3 | C=CC(=O)N1CCN2C(=O)c3c(N4CCOCC4)nc(-c4nc(N)ccc4C(F)(F)F)c(Cl)c3OC[C@H]2C1 [Z267]
185 | C=CC(=O)N1CCN2C(=O)c3c(N4CCC[C@]4(C)CO)nc(-c4c(O)cccc4F)c(Cl)c3OC[C@H]2C1 [Z279-1]
161 | C=CC(=O)N1CCN2C(=O)c3c(C4=CCN(C)CC4C)nc(-c4c(O)cccc4F)c(Cl)c3OC[C@H]2C1 (stereo partly drawn) [Z304, (6aR)-8-acryloyl-4-chloro-1-(1,3-dimethyl-1,2,3,6-tetrahydropyridin-4-yl)-3-(2-fluoro-6-hydroxyphenyl)-6,6a,7,8,9,10-hexahydro-12H-pyrazino[2,1-c]pyrido[3,4-f]oxazepin-12-one]
291 | C=CC(=O)N1CCN2C(=O)c3c(N4CCC45CCC5)nc(-c4c(O)cccc4F)c(Cl)c3OC[C@H]2C1 [Z309, (6aR)-8-acryloyl-4-chloro-3-(2-fluoro-6-hydroxyphenyl)-1-(1-azaspiro[3.3]heptan-1-yl)-6,6a,7,8,9,10-hexahydro-12H-pyrazino[2,1-c]pyrido[3,4-f][1,4]oxazepin-12-one]
54.1 | C=CC(=O)N1CCN2C(=O)c3c(N4CCN5CCC[C@H]5C4)nc(-c4c(O)cccc4F)c(Cl)c3OC[C@H]2C1 [Z317-1, (6aR)-8-acryloyl-4-chloro-3-(2-fluoro-6-hydroxyphenyl)-1-((S)-hexahydropyrrolo[1,2-a]pyrazin-2(1H)-yl)-6,6a,7,8,9,10-hexahydro-12H-pyrazino[2,1-c]pyrido[3,4-f][1,4]oxazepin-12-one]
137 | C=CC(=O)N1CCN2C(=O)c3c(N4CCOCC4)nc(-c4c(O)cccc4F)c(F)c3OC[C@H]2C1 [Z329, (6aR)-8-acryloyl-1-(morpholino)-4-fluoro-3-(2-fluoro-6-hydroxyphenyl)-6,6a,7,8,9,10-hexahydro-12H-pyrazino[2,1-c]pyrido[3,4-f][1,4]oxazepin-12-one]
